Reference: US10570117B2, “Phenylimidazole compound” (Otsuka Pharmaceutical Factory, Inc., priority 2015, dated 2020)
Values after ≈ are worked out from the molar mass of the structure shown. Like-named read-outs stand apart in the source and are kept apart here.

Tests used:
[1] = Solubility in gastric juice or intestinal juice model fluid (precipitation method using DMSO); format: physicochemical; conditions: room temperature
How it was run: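 Dissolved amount (μg/mL) quantified by UV of filtrate versus pre-made calibration curves. Precipitation approach: DMSO solutions spiked into pH 1.2 (JP 1st fluid) or pH 6.8 (JP 2nd fluid) medium, shaken at room temperature for 24 h before insolubles were filtered off.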

[2] = system: lipoprotein lipase (LPL) gene; experiment: LPL mRNA elevating action (RT-PCR quantification of LPL mRNA in C2Cl2 cells); format: cell-based, mouse; conditions: Mus musculus, 24 h, compound 10 μM, ratio relative to the amount of LPL mRNA in cells with DMSO only, read-out: Rate of increase in LPL mRNA
How it was run: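 Read-out is LPL mRNA relative to vehicle (DMSO = 1), measured by reverse transcription and 20-cycle real-time PCR. Cells were the mouse striated-muscle line C2Cl2, treated 24 h with 10 μM compound in DMEM containing 10% FBS.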

[3] = pH 1.2, simulated gastric fluid, kinetic from dmso stock, 1st fluid for Disintegration Test of Japanese Pharmacopoeia (pH: 1.2), read-out: Solubility (μg/mL) 1st fluid
[4] = pH 6.8, kinetic from dmso stock, 2nd fluid for Disintegration Test of Japanese Pharmacopoeia (pH: 6.8), read-out: Solubility (μg/mL) 2nd fluid

SMILES | melting point | solubility at 24 h [1, 3] [µg/mL] | solubility at 24 h [1, 4] [µg/mL] | fold induction at 10 µM [2]
COc1cc(-c2[nH]c(C3CC(F)(F)C3)nc2Cl)ccc1OCc1ccc(C(F)(F)F)cn1 [Example 191] | 201 to 203 °C (dec.) | 25.9 (≈ 54.7 µM) | 1.7 (≈ 3.59 µM) | 4.06
COc1cc(-c2[nH]c(C3CCC(F)(F)CC3)nc2Br)ccc1OCc1ncc(C(F)(F)F)cc1F [Example 327] | 203 to 204 °C | 110 (≈ 194 µM) | 0.7 (≈ 1.24 µM) | 3.06
COc1cc(-c2cnc(C3CC(F)(F)C3)[nH]2)ccc1OCc1ncc(C(F)(F)F)cc1F [Example 348] | 105 to 110 °C | 89.6 (≈ 196 µM) | 22.4 (≈ 49 µM) | 1.76
COc1cc(OCc2coc(C)n2)ccc1-c1c[nH]c(-c2ccc(Cl)nc2)n1 [Example 19] | 168 to 171 °C | 76.7 (≈ 193 µM) | 2.2 (≈ 5.54 µM) | 1.7
COc1cc(OCc2ccc(C(F)(F)F)nc2)ccc1-c1nc(-c2ccc(Cl)nc2)[nH]c1C [Example 49] | 196 to 199 °C | 8.7 (≈ 18.3 µM) | 0.9 (≈ 1.9 µM) | 3.46
COc1cc(OC(C)c2ccc(C(F)(F)F)nc2)ccc1-c1[nH]c(-c2ccc(F)nc2)nc1Cl (stereo not shown) [Example 239] | 148 to 150 °C | 8.8 (≈ 17.9 µM) | 15.6 (≈ 31.7 µM) | 2.39
COc1cc(OCc2ncc(C(F)(F)F)cc2F)ccc1-c1[nH]c(C2CCC(F)(F)C2)nc1Cl (stereo not shown) [Example 346] | 147 to 149 °C | 99.1 (≈ 196 µM) | < 0.4 | 3.18
COc1cc(OCc2ccc(C(F)(F)F)cn2)ccc1-c1c[nH]c(C2CCCCC2)n1 [Example 77] | 226 to 228 °C | 8.7 (≈ 20.2 µM) | 1.3 (≈ 3.01 µM) | 3.11
COc1cc(OCc2ccc(C(F)(F)F)cn2)ccc1-c1c(C)nc(-c2ccc(Cl)nc2)n1CC1CC1 [Example 157] | 145 to 148 °C | 106 (≈ 199 µM) | 1.9 (≈ 3.59 µM) | 4.05
COc1cc(OCc2cnccc2C(F)(F)F)ccc1-c1cnc(-c2ccc(F)nc2)[nH]1 [Example 131] | 178 to 180 °C | 87.4 (≈ 197 µM) | < 0.3 | 3.66
COc1cc(-c2[nH]c(C3CCCC3)nc2Cl)ccc1OCc1ncc(C(F)(F)F)cc1F [Example 368] | 158 to 163 °C | 82.9 (≈ 176 µM) | 0.5 (≈ 1.06 µM) | 2.62
COc1cc(-c2c[nH]c(C3CCC3)n2)ccc1OCc1ccc(C(F)(F)F)cn1 [Example 73] | 210 to 213 °C (dec.) | > 108 | 5.3 (≈ 13.1 µM) | 4.07
COc1cc(OCc2ccc(C(F)(F)F)nc2)ccc1-c1[nH]c(-c2ccc(F)nc2)nc1C(F)(F)F [Example 412] | 222 to 224 °C | 0.6 (≈ 1.17 µM) | 1.5 (≈ 2.93 µM) | 1.41
COc1cc(OCc2cncc(C(F)(F)F)c2)ccc1-c1cnc(-c2ccc(Cl)nc2)[nH]1 [Example 106] | 191 to 203 °C | 31.2 (≈ 67.7 µM) | 6.3 (≈ 13.7 µM) | 2.66
COc1cc(OCc2ncc(C)cc2C)ccc1-c1c[nH]c(-c2ccc(F)nc2)n1 [Example 118] | 219 to 223 °C (dec.) | 80.2 (≈ 198 µM) | 2.1 (≈ 5.19 µM) | 2.91
COc1cc(OCc2ccc(C(F)(F)F)cn2)ccc1-c1[nH]c(C2CCC(F)(F)CC2)nc1Cl [Example 210] | 147 to 149 °C | 95.6 (≈ 190 µM) | 1.5 (≈ 2.99 µM) | 5.69

SMILES | melting point | solubility at 24 h [1, 3] [µg/mL] | solubility at 24 h [1, 4] [µg/mL] | fold induction at 10 µM [2]
Fc1cc(C(F)(F)F)cnc1COc1ccc(-c2cnc(C3CC(F)(F)C3)[nH]2)cc1 [Example 393] | 191 to 196 °C | > 85 | 1.9 (≈ 4.45 µM) | 1.26
COc1cc(-c2c[nH]c(-c3ccc(Cl)nc3)n2)c(OC)cc1OCc1ccc(C(F)(F)F)cn1 [Example 56] | 204 to 206 °C | 4.8 (≈ 9.78 µM) | 0.8 (≈ 1.63 µM) | 2.57
COc1cc(-c2cnc(C3CCC(F)(F)CC3)[nH]2)ccc1OCc1ncc(C(F)(F)F)cc1F [Example 323] | 157 to 159 °C | 78.3 (≈ 161 µM) | 17 (≈ 35 µM) | 1.72
COc1cc(OCc2ccc(C(F)(F)F)cn2)ccc1-c1nc(-c2ccc(Cl)nc2)n(CC2CC2)c1Cl [Example 294] | 123 to 126 °C | 104 (≈ 189 µM) | 2.4 (≈ 4.37 µM) | 2.42
COc1cc(OCc2ccc(C(F)(F)F)[n+]([O-])c2)ccc1-c1[nH]c(-c2ccc(F)nc2)nc1Cl [Example 315] | > 250 °C | 1.8 (≈ 3.64 µM) | 2.7 (≈ 5.46 µM) | 2.7
COc1cc(OCc2ccc(C(F)(F)F)nc2)ccc1-c1cnc(C2CCC(F)(F)CC2)[nH]1 [Example 17] | 62 to 72 °C | > 93 | 3 (≈ 6.42 µM) | 3.2
COc1c(OCc2ccc(C(F)(F)F)cn2)ccc(-c2[nH]c(C3CCC(F)(F)CC3)nc2Cl)c1OC [Example 205] | 175 to 177 °C | > 106 | < 9.5 | 5.41
CCSc1ccc(-c2ncc(-c3ccc(OCc4ncc(C(F)(F)F)cc4F)cc3OC)[nH]2)cn1 [Example 357] | 145 to 149 °C | 7.8 (≈ 15.5 µM) | < 0.3 | 3.59
COc1cc(OCc2ccc(C(F)(F)F)nc2)c(C)cc1-c1cnc(-c2ccc(F)nc2)[nH]1 [Example 15] | 199 to 201 °C (dec.) | 7.8 (≈ 17 µM) | < 8.1 | 4.27
COc1cc(-c2[nH]c(C3CCCC(F)(F)C3)nc2Br)ccc1OCc1ccc(C(F)(F)F)cn1 (stereo not shown) [Example 170] | 158 to 160 °C | 105 (≈ 191 µM) | 1.3 (≈ 2.38 µM) | 3.36
COc1cc(OCc2cncc(C(F)(F)F)c2)ccc1-c1[nH]c(-c2ccc(F)nc2)nc1Cl [Example 279] | 188 to 190 °C | 4.1 (≈ 8.56 µM) | 0.5 (≈ 1.04 µM) | 3.63
COc1cc(OCc2cnccc2C(F)(F)F)ccc1-c1[nH]c(-c2ccc(F)nc2)nc1Br [Example 256] | 132 to 162 °C | 11.4 (≈ 21.8 µM) | < 0.4 | 3.12
COc1cc(OCc2ncc(C(F)(F)F)cc2F)ccc1-c1[nH]c(-c2ccc(F)nc2)nc1C(F)(F)F [Example 411, 3-fluoro-2-[[4-(2-(6-fluoropyridin-3-yl)-4-(trifluoromethyl)-1H-imidazol-5-yl)-3-methoxyphenoxy]methyl]-5-(trifluoromethyl)pyridine] | 181 to 182 °C | 3.1 (≈ 5.84 µM) | 3 (≈ 5.66 µM) | 1.62
COc1cc(-c2nc(C3CCCCC3)[nH]c2Cl)ccc1OCc1ccc(C(F)(F)F)cn1 [Example 234] | 171 to 175 °C | 92.8 (≈ 199 µM) | < 0.3 | 3.06
COc1cc(OCc2ccc(C(F)(F)F)cc2)ccc1-c1nc(-c2ccc(Cl)cn2)[nH]c1C [Example 34] | 170 to 173 °C | 17 (≈ 35.9 µM) | < 0.3 | 2.22
